Assay results: patent US9447073B2, “Fungicidal compositions” (Viamet Pharmaceuticals, Inc., priority 2013, dated 2016)
Read-outs that look alike come from different tables or passages of the source.

Columns and labels:
[1] = system: Puccinia triticina (Synonym: Puccinia recondita f sp. tritici; Bayer Code PUCCRT); test: Fungicidal activity: Wheat Brown Rust (PUCCRT), wheat seedlings in greenhouse; type: in vivo; details: wheat (variety Yuma)
Method: Technical grades of materials were dissolved in acetone, which were then mixed with nine volumes of water containing 110 ppm Triton X-100. The fungicide solutions were applied onto wheat seedlings using an automated booth sprayer to run-off. All sprayed plants were allowed to air dry prior to further handling.
(§1) Wheat plants (variety Yuma) were grown from seed in a greenhouse in 50% mineral soil/50% soil-less Metro mix until the first leaf was fully emerged, with 7-10 seedlings per pot. These plants were inoculated with an aqueous spore suspension of Septoria tritici either prior to or after fungicide treatments. After inoculation the plants were kept in 100% relative humidity (one day in a dark dew chamber followed by two to three days in a lighted dew chamber at 20° C.) to permit spores to germinate and infect the leaf. The plants were then transferred to a greenhouse set at 20° C. for disease to develop. When disease symptoms were fully expressed on the 1st leaves of untreated plants, infection levels were assessed on a scale of 0 to 100 percent disease severity. Percent disease control was calculated using the ratio of disease severity on treated plants relative to untreated plants.
Wheat plants (variety Yuma) were grown from seed in a greenhouse in 50% mineral soil/50% soil-less Metro mix until the first leaf was fully emerged, with 7-10 seedlings per pot. These plants were inoculated with an aqueous spore suspension of Puccinia triticina either prior to or after fungicide treatments. After inoculation the plants were kept in a dark dew room at 22° C. with 100% relative humidity overnight to permit spores to germinate and infect the leaf. The plants were then transferred to a greenhouse set at 24° C. for disease to develop. Fungicide formulation, application and disease assessment followed the procedures as described in Example 18.

[2] = system: Mycosphaerella graminicola (Anamorph: Septoria tritici; Bayer Code SEPTTR); test: Fungicidal activity: Leaf Blotch of Wheat (SEPTTR), wheat seedlings in greenhouse; type: in vivo; design: key to Disease Control SEPTTR 1DP: A: 80-100; B: More than 0—Less than 80; C: Not Tested; D: No activity noticed in this bioassay; details: wheat (variety Yuma); for pest or weed control at 50 ppm: Zymoseptoria tritici
Method: as §1, with “Technical grades of materials were dissolved in acetone, which were then mixed with nine volumes of water containing 110 ppm Triton X-100. The fungicide solutions were applied onto wheat seedlings using an automated booth sprayer to run-off. All sprayed plants were allowed to air dry prior to further handling. Wheat” for “Wheat”

[3] = 1DC, read-out: Disease Control PUCCRT 1DC
[4] = 1DP, read-out: Disease Control PUCCRT 1DP
[5] = 1DP, read-out: Disease Control SEPTTR 1DP
[6] = 3DC, read-out: Disease Control SEPTTR 3DC

Compound	pest or weed control at 50 ppm [1, 3] [%]	pest or weed control at 50 ppm [1, 4] [%]	pest or weed control at 50 ppm [2, 5] [%]	pest or weed control at 50 ppm [2, 6] [%]	melting point [°C]	Disease Control SEPTTR 1DP ([2]; 50 ppm, 1DP)
CCSc1nnnn1CC(O)(c1ccc(F)cc1F)C(F)(F)c1ccc(Oc2ccc(C#N)cc2)cn1 (centres unmarked) [Compound F7]	80 to 100	80 to 100	0 to 80	80 to 100		
N#Cc1ccc(Oc2ccc(C(F)(F)C(O)(Cn3nn[nH]c3=S)c3ccc(F)cc3F)nc2)cc1 (centres unmarked) [Compound F2, 4-((6-(2-(2,4-difluorophenyl)-1,1-difluoro-2-hydroxy-3-(5-thioxo-4,5-dihydro-1H-tetrazol-)propyl)pyridin-3-yl)oxy)benzonitrile]		80 to 100	80 to 100	80 to 100		
N#Cc1ccc(Oc2ccc(C(F)(F)C(O)(Cn3nn[nH]c3=S)c3ccc(F)cc3F)nc2)nc1 (centres unmarked) [Compound F3]	80 to 100	80 to 100	80 to 100	0 to 80		
N#Cc1ccc(Oc2ccc(C(F)(F)C(O)(Cn3nnnc3SCC3CC3)c3ccc(F)cc3F)nc2)cc1 (centres unmarked) [Compound F13]		80 to 100	80 to 100	80 to 100		
NC(=S)c1ccc(Oc2ccc(C(F)(F)C(O)(Cn3nn[nH]c3=S)c3ccc(F)cc3F)nc2)cc1 (centres unmarked) [Compound F1, 4-((6-(2-(2,4-difluorophenyl)-1,1-difluoro-2-hydroxy-3-(5-thioxo-4,5-dihydro-1H-tetrazol-)propyl)pyridin-3-yl)oxy)benzothioamide]	80 to 100	80 to 100	80 to 100	80 to 100	214 to 218	
OC(Cn1nn[nH]c1=S)(c1ccc(F)cc1F)C(F)(F)c1ccc(Oc2ccc(Cl)cn2)cn1 (centres unmarked) [Compound F4]	80 to 100	80 to 100	80 to 100	80 to 100		
OC(Cn1nn[nH]c1=S)(c1ccc(F)cc1F)C(F)(F)c1ccc(Oc2ccc(C(F)(F)F)cn2)cn1 (centres unmarked) [Compound F8]	80 to 100	80 to 100	80 to 100	80 to 100		
OC(Cn1nn[nH]c1=S)(c1ccc(F)cc1F)C(F)(F)c1ccc(COC(F)F)cn1 (centres unmarked) [Compound F9]	80 to 100	80 to 100	80 to 100	80 to 100		
CSc1nnnn1CC(O)(c1ccc(F)cc1F)C(F)(F)c1ccc(Br)cn1 (centres unmarked) [Compound F6, 1-(5-bromopyridin-2-yl)-2-(2,4-difluorophenyl)-1,1-difluoro-3-(5-(methylthio)-1H-tetrazol-1-yl)propan-2-ol]	80 to 100	0 to 80		0 to 80		D
OC(Cn1nn[nH]c1=S)(c1ccc(F)cc1F)C(F)(F)c1ccc(OC2CC2(F)F)cn1 (centres unmarked) [Compound F10]	80 to 100	80 to 100	80 to 100	80 to 100	53 to 57	
CSc1nnnn1CC(O)(c1ccc(F)cc1F)C(F)(F)c1ccc(Oc2ccc(C#N)cc2)cn1 (centres unmarked) [Compound F11, 4-((6-(2-(2,4-difluorophenyl)-1,1-difluoro-2-hydroxy-3-(5-(methylthio)-1H-tetrazol-1-yl)propyl)pyridin-3-yl)oxy)benzonitrile]		80 to 100	80 to 100	80 to 100		
OC(Cn1nn[nH]c1=S)(c1ccc(F)cc1F)C(F)(F)c1ccc(OCC(F)(F)F)cn1 (centres unmarked) [Compound F5]	80 to 100	80 to 100	80 to 100	80 to 100		
N#Cc1ccc(Oc2ccc(C(F)(F)C(O)(Cn3nnnc3SCc3ccccc3)c3ccc(F)cc3F)nc2)cc1 (centres unmarked) [Compound F12]		80 to 100	0 to 80	80 to 100		
